# Results taken from patent US6455540B1, “Methods of use of quinolone compounds against anaerobic pathogenic bacteria” (priority 1999, dated 2002).
# Experiments:
# peptostreptococci = test: Agar dilution MIC, peptostreptococci as a group; assay type: cell-based, P. asaccharolyticus, P. magnus, P. micros, P. prevotii; conditions: 45 strains of peptostreptococci from 4 species; read-out: concentration to which all strains were susceptible (MIC)
# [1] = system: Porphyromonas spp. [P. asaccharolytica, P. canoris, P. gingivalis, P. macaccae]; test: Agar dilution MIC, Porphyromonas spp. as a group; assay type: cell-based; conditions: read-out: concentration to which all strains were susceptible (MIC)
# Anaerobiospirillum spp. = test: Agar dilution MIC; assay type: cell-based
# Fusobacterium naviforme = test: Agar dilution MIC; assay type: cell-based; conditions: read-out: concentration to which strains were susceptible (MIC)
# F. necrophorum = test: Agar dilution MIC; assay type: cell-based; conditions: Fusobacterium necrophorum; read-out: concentration to which strains were susceptible (MIC)
# F. ulcerans = test: Agar dilution MIC; assay type: cell-based; conditions: Fusobacterium ulcerans
# Gram-positive anaerobes = test: Agar dilution activity against Gram-positive anaerobes; assay type: cell-based; conditions: for activity compared with trovafloxacin: Gram-positive strains
# Clostridium ramosum = conditions: prior study (Goldstein, et al.), 14 isolates; cited from earlier work
# Bacteroides fragilis = conditions: Goldstein, et al.; cited from earlier work
# B. thetaiotaomicron = conditions: Goldstein, et al.; cited from earlier work
# B. distasonis = conditions: Goldstein, et al.; cited from earlier work
structure (smiles),measurement,setting,value
"CO/N=C1\CN(c2nc3c(cc2F)c(=O)c(C(=O)O)cn3C2CC2)CC1CN (racemic) [Gemifloxacin, (R,S)-7-(3-aminomethyl-4-methoxyiminopyrrolidin-1-yl)-1-cyclopropyl-6-fluoro-4-oxo-1,4-dihydro-1,8-naphthyridine-3-carboxylic acid]",MIC,peptostreptococci,≤ 0.25 µg/mL
same,MIC,[1],≤ 0.25 µg/mL
same,MIC90,Anaerobiospirillum spp.,≤ 2 µg/mL
same,MIC,Fusobacterium naviforme,≤ 2 µg/mL
same,MIC,F. necrophorum,≤ 2 µg/mL
same,MIC90,F. ulcerans,≥ 4 µg/mL
same,activity,Gram-positive anaerobes,good activity
same,activity compared with trovafloxacin,Gram-positive anaerobes,generally more active than trovafloxacin against Gram-positive strains by one to two dilutions
same,activity compared with trovafloxacin,Gram-positive anaerobes; listed as gemifloxacin,compared favorably with trovafloxacin
same,MIC90,Clostridium ramosum,8 µg/mL
same,activity,Bacteroides fragilis,showed activity
same,activity,B. thetaiotaomicron,only limited activity
same,activity,B. distasonis,only limited activity
